Test [1] addresses T1, SCV Hel duplex DNA-unwinding activity (Severe acute respiratory syndrome coronavirus, UniProt P0C6X7). To be noted: read-out: IC50 SCV Hel duplex DNA-unwinding; cited from earlier work.
In test [2] the target is T1, SCV Hel duplex DNA-unwinding activity. It counts as biochemical, SARS coronavirus.

The term IC50 denotes the point on the concentration scale where inhibition reaches its midpoint.

`COc1cc(C23OC4(O)CC(O)(CC(O)(C4)O2)O3)ccc1O` [vanillinbananin]: the concentration for half-maximal inhibition (IC50) in test [1] was 2700 nM.

As for `O=C(O)/C(O)=C/C(=O)c1cccc(OCc2ccccc2)c1` [Compound 3], in test [2], the “inhibition of helicase duplex DNA-unwinding activity” value is given as “neither 2 nor 3 showed inhibition”.

For `O=C(O)/C(O)=C/C(=O)c1ccc(OCc2ccc(Cl)cc2)cc1` [Compound 2], the “inhibition of helicase duplex DNA-unwinding activity” value in test [2] is given as “neither 2 nor 3 showed inhibition”.

These data come from PMC7127030 (Bioorganic & Medicinal Chemistry Letters, 2009).
